Where two headings read alike, the source gives them in different places.
What was measured:
[1] = tested on: mouse hippocampal neuronal cell line HT22; test: Neurotoxicity and excitotoxicity assay, HT22 cells + glutamate, erastin or RSL3, MTS cell viability; assay type: cell-based; conditions: for EC50: Mus musculus
Procedure: (§1) The excitotoxicity model used was the mouse hippocampal neuronal HT22 cells treated with glutamate [Dixon et al., Cell, 2012, 149(5), 1060-1072]. Ferroptosis and oxidative stress are both associated in this glutamate-induced cell death [Chu et al., Neural Regen. Res., 2020, 15(3), 528-536]. Phenotypic screening was also carried out with additional cell death inducers, erastin and RSL3 ((1S,3R)-Ras-selective lethal), in HT22 and SH-SY5Y (human neuroblastoma cells). Erastin and RSL3 are well described molecules, used as chemical tools for the study of ferroptosis regulation and neuronal pathologies [Lewerenz et al., Front. Neurosci., 2018, 12: 214; Reichert et al., Int. J. Mol. Sci., 2020, 21, 8765].
(§2) Mouse hippocampal neuronal cell line (HT22, ATCC) and human neuroblastoma cell line (SH-SY5Y, ATCC) were grown in Dulbecco's Modified Eagle Medium (DMEM, Gibco) supplemented with 10% fetal bovine serum (FBS, Gibco) at 37° C. under 5% CO2 atmosphere. Neurotoxicity was induced by erastin or RSL3 and excitotoxicity was induced by glutamate. Cells were seeded in 96-well plates at 5,000 and 10,000 cells/well for HT22 and SH-SY5Y cell lines, respectively. Cells were treated with 0.5-1 μM Erastin (HT22 cells) or 10 μM Erastin (SH-SY5Y cells) or 5-10 mM glutamate (HT22 cells) or 0.5 μM RSL3 (HT22 cells) or 5 μM RSL3 (SH-SY5Y cells) for 24 h in presence of increasing concentrations of inhibitors. Cells treated with DMSO only were used as controls. Cell viability was assessed by MTS assay (CellTiter 96 AQueous One Solution Cell Proliferation assay, Promega).
(§3) In FIGS. 1, 2A and 2B, an inhibitor was added to HT22 (FIG. 1: compound 6) or SH-SY5Y (FIG. 2A: compound 6; FIG. 2B: compound 25) cells in the presence or not of cell death inducers (erastin, glutamate or RSL3). […] EC50 values for compounds 1-28 were calculated from dose-response curves using Graphpad Prism software.

[2] = tested on: human neuroblastoma cell line SH-SY5Y; test: Neurotoxicity assay, SH-SY5Y cells + erastin or RSL3, MTS cell viability; assay type: cell-based; conditions: for EC50: Homo sapiens; for effect on cell viability without cell death inducers (potential cytotoxic effect of the molecule alone): doses tested maximum 50 or 100 μM; for concentration reaching almost total inhibition of induced cell death: in the presence of a ferroptosis inducer
Procedure: as §1, §2, §3

[3] = HT-22, 24 h, read-out: EC50 HT22 Erastin
[4] = HT-22, 24 h, read-out: EC50 HT22 RSL3
[5] = SH-SY5Y, 24 h, read-out: EC50 SH-SY5Y RSL3
[6] = SH-SY5Y cells, 10 μM Erastin, 24 h, MTS, read-out: EC50 SH-SY5Y Erastin
[7] = HT-22, HT22 cells, 0.5 μM RSL3, 24 h, MTS, read-out: EC50 HT22 RSL3
[8] = HT-22, HT22 cells, 0.5-1 μM Erastin, 24 h, MTS, read-out: EC50 HT22 Erastin
[9] = HT-22, HT22 cells, 5-10 mM glutamate, 24 h, MTS, read-out: EC50 HT22 Glutamate
[10] = SH-SY5Y cells, 5 μM RSL3, 24 h, MTS, read-out: EC50 SH-SY5Y RSL3
[11] = HT-22, 24 h, read-out: EC50 HT22 Glutamate
[12] = SH-SY5Y, 24 h, read-out: EC50 SH-SY5Y Erastin

`CCOc1ccc(-c2cc3ccncc3n2OC(=O)N(CC)CC)cc1` [Compound 34, 2-(4-ethoxyphenyl)-1H-pyrrolo[2,3-c]pyridin-1-yl diethylcarbamate] was tested, and the EC50 [1, 3] was greater than 50 µM, the EC50 [1, 4] was 16.8 µM and the EC50 [2, 5] was 6.62 µM.

Compound `CCOc1ccc(-c2[nH]c3ncccc3c2CN2CCN(C)CC2)cc1` [Compound 16, 2-(4-ethoxyphenyl)-3-((4-methylpiperazin-1-yl)methyl)-1H-pyrrolo[2,3-b]pyridine] has an EC50 [2, 6] greater than 50 µM.

Work on `Oc1ccc2[nH]c(-c3ccc(OCc4ccccc4)cc3)cc2c1` [Compound 32, 2-(4-(benzyloxy)phenyl)-1H-indol-5-ol] yielded an EC50 [1, 7] of 1 µM and an EC50 [1, 8] of 2 µM.

`CCOc1ccc(-c2cc3ccc(OC(C)=O)nc3n2C(C)=O)cc1` [Compound 22, 1-acetyl-2-(4-ethoxyphenyl)-1H-pyrrolo[2,3-b]pyridin-6-yl acetate] showed an EC50 [1, 7] of 9.09 µM, an EC50 [1, 8] of 5.53 µM and an EC50 [1, 9] of 5.31 µM. It also gave an EC50 [2, 10] of 0.79 µM and an EC50 [2, 6] of 1.16 µM.

In the case of `CCOc1ccc(-c2cc3ccc(-c4cn[nH]c4)nc3[nH]2)cc1` [Compound 41, 2-(4-ethoxyphenyl)-6-(1H-pyrazol-4-yl)-1H-pyrrolo[2,3-b]pyridine], the EC50 [1, 7] is reported as 6.5 µM, the EC50 [2, 10] is reported as 2.21 µM and the EC50 [2, 6] is reported as 3.68 µM.

Compound `CCOc1ccc(-c2cc3c(-c4ccc(C(=O)c5ccccc5)cc4)ccn(Cc4ccccc4)c-3n2)cc1` [Compound 28, (4-(7-benzyl-2-(4-ethoxyphenyl)-7H-pyrrolo[2,3-b]pyridin-4-yl)phenyl)(phenyl)methanone] has an EC50 [1, 7] of 17.3 µM, an EC50 [1, 8] of 23.9 µM and an EC50 [1, 9] of 14.8 µM. The EC50 [2, 10] was 15.8 µM and the EC50 [2, 6] was 31.3 µM.

`CCOc1ccc(-c2cc3cccn(C(=O)N(C(C)C)C(C)C)c-3n2)cc1` [Compound 24, 2-(4-ethoxyphenyl)-N,N-diisopropyl-7H-pyrrolo[2,3-b]pyridine-7-carboxamide] gave an EC50 [1, 3] greater than 50 µM, an EC50 [1, 11] greater than 50 µM and an EC50 [1, 4] of 21 µM. The EC50 [2, 12] was 11 µM and the EC50 [2, 5] was 3.43 µM.

Compound `CCOc1ccc(-c2[nH]c3ncccc3c2C(O)C(F)(F)F)cc1` (centres unmarked) [Compound 18, 1-(2-(4-ethoxyphenyl)-1H-pyrrolo[2,3-b]pyridin-3-yl)-2,2,2-trifluoroethan-1-ol] has an EC50 [2, 6] greater than 50 µM.

`CCOc1ccc(-c2cc3c(Nc4ccccc4)ccnc3n2S(=O)(=O)c2ccccc2)cc1` [Compound 43, 2-(4-ethoxyphenyl)-N-phenyl-1-(phenylsulfonyl)-1H-pyrrolo[2,3-b]pyridin-4-amine] gave an EC50 [1, 7] of 2.35 µM, an EC50 [1, 8] of 0.53 µM and an EC50 [2, 10] of 1.35 µM. For the same compound, the EC50 [2, 6] was 1.64 µM.

`CCOc1ccc(-c2cc3c(Nc4ccc(C(=O)c5ccccc5)cc4)ccnc3[nH]2)cc1` [Compound 11, (4-((2-(4-ethoxyphenyl)-1H-pyrrolo[2,3-b]pyridin-4-yl)amino)phenyl)(phenyl)methanone] showed an EC50 [1, 7] of 1.16 µM, an EC50 [1, 8] of 0.32 µM and an EC50 [1, 9] of 0.14 µM. For the same compound, the EC50 [2, 6] was 0.15 µM.

`CCOc1ccc(-c2cc3c(Nc4ccccc4)ccnc3[nH]2)cc1` [Compound 14, 2-(4-ethoxyphenyl)-N-phenyl-1H-pyrrolo[2,3-b]pyridin-4-amine] gave an EC50 [1, 7] of 0.76 µM, an EC50 [1, 8] of 1.52 µM and an EC50 [1, 9] of 0.55 µM. It also gave an EC50 [2, 6] of 1.11 µM.

`COc1ccc(-c2cc3ccccc3[nH]2)cc1` [Compound 2, 2-(4-methoxyphenyl)-1H-indole] showed an EC50 [1, 3] of 7.92 µM, an EC50 [1, 11] of 2.66 µM and an EC50 [1, 4] of 46 µM. The EC50 [2, 12] was 2.9 µM and the EC50 [2, 5] was 7.43 µM.

For `CCOc1ccc(-c2cc3c(N(C)c4ccccc4)ccnc3[nH]2)cc1` [Compound 44, 2-(4-ethoxyphenyl)-N-methyl-N-phenyl-1H-pyrrolo[2,3-b]pyridin-4-amine], the EC50 [1, 7] was 7.12 µM, the EC50 [1, 8] was 0.43 µM and the EC50 [2, 10] was 2.66 µM. For the same compound, the EC50 [2, 6] was 4.43 µM.

`CC(CO)(CO)C(=O)Oc1ccc(-c2cc3cccnc3[nH]2)cc1` [Compound 10, 4-(1H-pyrrolo[2,3-b]pyridin-2-yl)phenyl 3-hydroxy-2-(hydroxymethyl)-2-methylpropanoate] was tested, and the EC50 [1, 7] was greater than 50 µM, the EC50 [1, 8] was greater than 25 µM and the EC50 [1, 9] was greater than 25 µM. For the same compound, the EC50 [2, 6] was 13.7 µM.

`COc1ccc(-c2cc3ccccc3n2O)cc1` [Compound 3, 2-(4-methoxyphenyl)-1H-indol-1-ol] was tested, and the EC50 [1, 7] was 0.32 µM, the EC50 [1, 8] was 0.92 µM and the EC50 [1, 9] was 1.13 µM.

Compound `CCOc1ccc(-c2cc3cccn(C(=O)OCc4ccccc4)c-3n2)cc1` [Compound 25, benzyl 2-(4-ethoxyphenyl)-7H-pyrrolo[2,3-b]pyridine-7-carboxylate] has an EC50 [1, 7] of 19 µM, an EC50 [1, 8] of 3.39 µM and an EC50 [1, 9] of 1.65 µM. For the same compound, the EC50 [2, 10] was 5.25 µM, the EC50 [2, 6] was 1.4 µM and the “effect on cell viability without cell death inducers (potential cytotoxic effect of the molecule alone)” value ([2]; SH-SY5Y cells, 24 h) was “no effect on cell viability”. For the same compound, the “concentration reaching almost total inhibition of induced cell death” value ([2]; SH-SY5Y cells) was 10 µM.

`CCOc1ccc(-c2cc3ccc(N)nc3[nH]2)cc1` [Compound 36, 2-(4-ethoxyphenyl)-1H-pyrrolo[2,3-b]pyridin-6-amine] gave an EC50 [1, 7] of 0.27 µM, an EC50 [1, 8] of 0.32 µM and an EC50 [2, 10] of 0.07 µM. For the same compound, the EC50 [2, 6] was 0.23 µM.

`CCOc1ccc(-c2cc3cccnc3n2-c2ccc([N+](=O)[O-])cn2)cc1` [Compound 19, 2-(4-ethoxyphenyl)-1-(5-nitropyridin-2-yl)-1H-pyrrolo[2,3-b]pyridine] gave an EC50 [1, 7] of 22.1 µM, an EC50 [1, 8] of 23.3 µM and an EC50 [1, 9] of 12.8 µM. For the same compound, the EC50 [2, 10] was 5.6 µM and the EC50 [2, 6] was 14.3 µM.

With `CC(C)(C)OC(=O)n1c(-c2ccc(O)cc2)cc2ccccc21` [Compound 29, tert-butyl 2-(4-hydroxyphenyl)-1H-indole-1-carboxylate] the EC50 [1, 7] was 3.96 µM, the EC50 [1, 8] was 8.3 µM and the EC50 [1, 9] was 5.5 µM. The EC50 [2, 10] was 1.46 µM.

`CCOc1ccc(-c2cc3ccncc3n2OC(=O)c2ccccc2)cc1` [Compound 6, 2-(4-ethoxyphenyl)-1H-pyrrolo[2,3-c]pyridin-1-yl benzoate] was tested, and the “effect on cell viability without cell death inducers (potential cytotoxic effect of the molecule alone)” value ([1]; HT22 cells, 24 h, doses tested maximum 50 or 100 μM) was “no effect on cell viability”, the “concentration reaching almost total inhibition of induced cell death” value ([1]; HT22 cells, in the presence of a ferroptosis inducer) was 10 µM and the EC50 [1, 7] was 2.31 µM. The EC50 [1, 8] was 2.05 µM, the EC50 [1, 9] was 1.64 µM and the EC50 [2, 6] was 0.18 µM. The “effect on cell viability without cell death inducers (potential cytotoxic effect of the molecule alone)” value ([2]; SH-SY5Y cells, 24 h) was “no effect on cell viability” and the “concentration reaching almost total inhibition of induced cell death” value ([2]; SH-SY5Y cells) was 1 µM.

`CCOc1ccc(-c2cc3ccncc3[nH]2)cc1` [Compound 4, 2-(4-ethoxyphenyl)-1H-pyrrolo[2,3-c]pyridine] showed an EC50 [1, 7] of 27.8 µM, an EC50 [1, 8] greater than 25 µM and an EC50 [1, 9] greater than 25 µM. The EC50 [2, 10] was 5.42 µM and the EC50 [2, 6] was 7.66 µM.

With `CCOc1ccc(-c2cc3ccc[n+]([O-])c3[nH]2)cc1` [Compound 23, 2-(4-ethoxyphenyl)-1H-pyrrolo[2,3-b]pyridine-7-oxide] the EC50 [1, 7] was 9.93 µM, the EC50 [1, 8] was greater than 25 µM and the EC50 [1, 9] was greater than 25 µM. The EC50 [2, 10] was 2.64 µM and the EC50 [2, 6] was 26.3 µM.

Work on `Oc1ccc(-c2cc3ccc(-c4ccc(O)nc4)nc3[nH]2)cc1` [Compound 40, 5-(2-(4-hydroxyphenyl)-1H-pyrrolo[2,3-b]pyridin-6-yl)pyridin-2-ol] yielded an EC50 [1, 7] of 4.98 µM, an EC50 [1, 8] of 13.3 µM and an EC50 [2, 10] of 0.95 µM. For the same compound, the EC50 [2, 6] was 5.06 µM.

`CCOc1ccc(-c2cc3ccc(C#N)nc3[nH]2)cc1` [Compound 35, 2-(4-ethoxyphenyl)-1H-pyrrolo[2,3-b]pyridine-6-carbonitrile] was tested, and the EC50 [1, 7] was 5.4 µM, the EC50 [1, 8] was 17 µM and the EC50 [2, 10] was 1.03 µM. The EC50 [2, 6] was 5.95 µM.

`c1ccc(COc2ccc(-c3cc4ccccc4[nH]3)cc2)cc1` [Compound 31, 2-(4-(benzyloxy)phenyl)-1H-indole] was tested, and the EC50 [1, 3] was greater than 25 µM and the EC50 [1, 4] was greater than 15 µM.

For `Cn1c(-c2ccc(O)cc2)cc2ccccc21` [Compound 33, 4-(1-methyl-1H-indol-2-yl)phenol], the EC50 [1, 7] was 10.8 µM, the EC50 [1, 8] was 32 µM and the EC50 [1, 9] was 16 µM.

In the case of `CCOc1ccc(-c2[nH]c3ncccc3c2I)cc1` [Compound 17, 2-(4-ethoxyphenyl)-3-iodo-1H-pyrrolo[2,3-b]pyridine], the EC50 [2, 6] is reported as greater than 50 µM.

With `Oc1ccc(-c2cc3cc(Br)ccc3[nH]2)cc1` [Compound 30, 4-(5-bromo-TH-indol-2-yl)phenol] the EC50 [1, 3] was 7.5 µM and the EC50 [1, 4] was 7.5 µM.

Source: patent US20240116923A1, “USE OF INDOLE, 6- AND 7-AZAINDOLE DERIVATIVES AS INHIBITORS OF FERROPTOSIS REGULATED CELL DEATH” (Seabelife, priority 2021, published 2024)
